This test deals with T1, truncated human beta-secretase (residues 1-458, His6-tagged at the C-terminus) (Homo sapiens, UniProt P56817).
T1 construct: truncated human beta-secretase (residues 1-458, His6-tagged at the C-terminus); His6 (C); made in house; host or cells: insect cells D. melanogaster S2 (baculovirus expression system (so in the source))
Briefly: BACE fluorescence quench assay. The format is biochemical.

Where [1] appears, read: in vitro enzyme activity, BACE fluorescence assay, pH 4.5, read-out: IC50.

The structures appear in SMILES notation. Read-outs that look alike come from different tables or passages of the source.

T1 sequence (P56817 22-458): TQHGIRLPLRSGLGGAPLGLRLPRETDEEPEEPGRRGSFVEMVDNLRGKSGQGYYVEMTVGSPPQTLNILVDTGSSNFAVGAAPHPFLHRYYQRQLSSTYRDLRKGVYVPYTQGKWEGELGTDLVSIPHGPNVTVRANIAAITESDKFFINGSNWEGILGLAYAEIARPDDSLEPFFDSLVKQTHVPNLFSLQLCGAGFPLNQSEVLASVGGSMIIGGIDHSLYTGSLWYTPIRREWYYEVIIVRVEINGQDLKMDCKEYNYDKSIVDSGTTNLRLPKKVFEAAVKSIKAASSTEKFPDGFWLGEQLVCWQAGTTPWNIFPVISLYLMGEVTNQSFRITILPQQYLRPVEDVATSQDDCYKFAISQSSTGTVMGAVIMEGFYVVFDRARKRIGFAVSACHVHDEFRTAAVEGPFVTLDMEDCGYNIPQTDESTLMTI

As usually defined, the IC50 is the concentration that gives 50% inhibition. For the compound `CC(C)=CC(CCO)[C@H]1C[C@@]2(N=C(N)N(C)O2)c2cc(-c3cccc(C(F)(F)F)c3)ccc2O1` (stereo partly shown) [Compound 442], the concentration for half-maximal inhibition (IC50) under setting [1] lay within 5000 to 10000 nM.
With `CCCN1C(=O)C2(CC(c3ccccc3)Oc3ccc(Br)cc32)N=C1N` (stereo not shown) [Compound 57, 2′-amino-6-bromo-2-phenyl-1′-propylspiro[chroman-4,4′-imidazol]-5′(1′H)-one], the concentration for half-maximal inhibition (IC50) under setting [1] fell in the range of 10000 to 50000 nM.
With `CN1OC2(CC(C3CC(C)(C)OC(C)(C)C3)Oc3ccc(-c4cccc(C#N)c4)cc32)N=C1N` (stereo not shown) [Compound 327], under setting [1], the IC50 was 100 to 500 nM.
Consider `CN1C(=O)C2(CC(c3ccccc3)Oc3ccc(-c4cncc(C#N)c4)cc32)N=C1N` (stereo not shown) [Compound 5, 5-(2′-amino-1′-methyl-5′-oxo-2-phenyl-1′,5′-dihydrospiro[chroman-4,4′-imidazole]-6-yl)nicotinonitrile], for which the IC50 is 100 to 500 nM.
Turning to `COCCCOc1cccc(-c2ccc3c(c2)C2(CC4(CCCOC4)O3)N=C(N)N(C)O2)c1` (stereo not shown) [Compound 128], the half-maximal inhibitory concentration (IC50) under setting [1] lay in the range of 10000 to 50000 nM.
As for `CN1C(=O)C2(CC(c3ccccc3)Oc3ccc(-c4cccnc4)cc32)N=C1N` (stereo not shown) [Compound 15, 2′-amino-1′-methyl-2-phenyl-6-(pyridin-3-yl)spiro[chroman-4,4′-imidazol]-5′(1′H)-one], the concentration for half-maximal inhibition (IC50) was 500 to 1000 nM.
Consider `Cc1cccc(-c2ccc3c(c2)[C@]2(C[C@@]4(CCCOC4)O3)N=C(N)N(C)C2=O)c1C` [Compound 440], for which, under setting [1], the IC50 fell in the range of 5000 to 10000 nM.
On the same count and under the same terms, to `CC(C)=CC(CCO)C1CC2(N=C(N)N(C)O2)c2cc(-c3cc(C#N)ccc3F)ccc2O1` (stereo not shown) [Compound 391] belongs 1000 to 5000 nM; to `CN1OC2(CC(C3CCOC(C)(C)C3)Oc3ccc(-c4ccc5cn[nH]c5c4)cc32)N=C1N` (stereo not shown) [Compound 361], 500 to 1000 nM.
Same read-out and setting: to `CN1OC2(CC(C3CCOC(C)(C)C3)Oc3ccc(-c4cc(C#N)ccc4C(F)(F)F)cc32)N=C1N` (stereo not shown) [Compound 354] belongs 500 to 1000 nM; to `CN1C(=O)C2(CC3(CCCCC3)Oc3ccc(-c4cccnc4)cc32)N=C1N` (stereo not shown) [Compound 80], 1000 to 5000 nM; to `CN1OC2(CC(C3CCCOC3)Oc3ccc(-c4cc(F)cc(F)c4)cc32)N=C1N` (stereo not shown) [Compound 90, 6-(3,5-difluorophenyl)-2′-methyl-2-(tetrahydro-2H-pyran-3-yl)-2′H-spiro[chroman-4,5′-[1,2,4]oxadiazol]-3′-amine], 100 to 500 nM.
On to `CN1C(=O)[C@@]2(C[C@@]3(CCCOC3)Oc3ccc(-c4ccc5cn[nH]c5c4)cc32)N=C1N` [Compound 457], for which the half-maximal inhibitory concentration (IC50) under setting [1] fell in the range of 10000 to 50000 nM.
Same read-out and setting: to `CN1OC2(CC(C3COc4ccccc4C3)Oc3ccc(-c4cccc(C#N)c4)cc32)N=C1N` (stereo not shown) [Compound 422] belongs 1000 to 5000 nM; to `CN1C(=O)[C@@]2(C[C@@]3(CCCOC3)Oc3ccc(-c4cc(C#N)ccc4C(F)(F)F)cc32)N=C1N` [Compound 449], 10000 to 50000 nM.
Still for that read-out and setting: next, `CN1C(=O)C2(CC3(CCCC3)Oc3ccc(-c4cccc(C#N)c4)cc32)N=C1N` (stereo not shown) [Compound 79]: 500 to 1000 nM; `CCC1CCC2(C1)CC1(N=C(N)N(C)C1=O)c1cc(-c3cccc(C#N)c3)ccc1O2` (stereo not shown) [Compound 73]: 100 to 500 nM; `CN1C(=O)C2(CC3(CCCOC3)Oc3ccc(-c4ccc(F)c(F)c4)cc32)N=C1N` (stereo not shown) [Compound 351]: 500 to 1000 nM.
Same read-out and setting: next, `CCOC(=O)c1cccc(-c2ccc3c(c2)[C@]2(C[C@@]4(CCCOC4)O3)N=C(N)N(C)C2=O)c1` [Compound 429]: 1000 to 5000 nM; `CN1C(=O)C2(CC3(CCCOC3)Oc3ccc(-c4cc(F)cc(F)c4F)cc32)N=C1N` (stereo not shown) [Compound 346]: 500 to 1000 nM.
For `CN1C(=O)C2(CC(C3CCOC(C)(C)C3)Oc3ccc(-c4cc(C#N)ccc4C(F)(F)F)cc32)N=C1N` (stereo not shown) [Compound 284], under setting [1], the half-maximal inhibitory concentration (IC50) fell in the range of 100 to 500 nM.
Turning to `CN1C(=O)[C@@]2(C[C@@]3(CCCOC3)Oc3ccc(-c4cc(CO)ccc4F)cc32)N=C1N` [Compound 435], the half-maximal inhibitory concentration (IC50) under setting [1] is 5000 to 10000 nM.
For `CN1C(=O)C2(CC3(CCCOC3)Oc3ccc(-c4cccc(C#N)c4F)cc32)N=C1N` (stereo not shown) [Compound 291], under setting [1], the IC50 was 100 to 500 nM.
On to `CN1OC2(CC3(CCCC(c4ccccc4)C3)Oc3ccc(-c4cccc(C#N)c4)cc32)N=C1N` (stereo not shown) [Compound 415], for which the IC50 under setting [1] lay within 1000 to 5000 nM.
Still for that read-out and setting: to `CN1C(=O)C2(CC(c3ccccc3F)Oc3ccc(-c4cccc(C#N)c4)cc32)N=C1N` (stereo not shown) [Compound 9, 3-(2′-amino-2-(2-fluorophenyl)-1′-methyl-5′-oxo-1′,5′-dihydrospiro[chroman-4,4′-imidazole]-6-yl)benzonitrile] belongs 100 to 500 nM.
Compound `CN1C(=O)C2(CC(c3ccccc3)Oc3ccc(Br)cc32)N=C1N` (stereo not shown) [Compound 44, 2′-amino-6-bromo-1′-methyl-2-phenylspiro[chroman-4,4′-imidazol]-5′(1′H)-one] displayed a half-inhibitory concentration (IC50) of 10000 to 50000 nM.
Consider `CN1C(=O)C2(CC(c3cccc(F)c3)Oc3ccc(Br)cc32)N=C1N` (stereo not shown) [Compound 38, 2′-amino-6-bromo-2-(3-fluorophenyl)-1′-methylspiro[chroman-4,4′-imidazol]-5′(1′H)-one], for which the half-maximal inhibitory concentration (IC50) under setting [1] fell in the range of 1000 to 5000 nM.
With `CN1C(=O)C2(CC(c3ccccc3)Oc3ccc(-c4cccc(CO)c4)cc32)N=C1N` (stereo not shown) [Compound 33, 2′-amino-6-(3-(hydroxymethyl)phenyl)-1′-methyl-2-phenylspiro[chroman-4,4′-imidazol]-5′(1′H)-one], the IC50 was 1000 to 5000 nM.
Turning to `CN1OC2(CC3(CCN(c4ccccc4)CC3)Oc3ccc(-c4cccc(C#N)c4)cc32)N=C1N` (stereo not shown) [Compound 390], under setting [1], the half-inhibitory concentration (IC50) is 1000 to 5000 nM.
For `CN1OC2(N=C1N)c1ccccc1OCC2CCc1cccc(C#N)c1` (stereo not shown) [Compound 399], the IC50 under setting [1] was 1000 to 5000 nM.
With `CN1O[C@@]2(C[C@@H]([C@H]3CCCOC3)Oc3ccc(-c4cc(F)cc(F)c4)cc32)N=C1N` [Compound 398], under setting [1], the half-maximal inhibitory concentration (IC50) is 1000 to 5000 nM.
Still for that read-out and setting: to `CN1C(=O)C2(CC(c3ccc(Cl)cc3)Oc3ccc(-c4cccc(C#N)c4)cc32)N=C1N` (stereo not shown) [Compound 6] belongs 100 to 500 nM.
With `COc1ccc(-c2ccc3c(c2)[C@]2(C[C@@]4(CCCOC4)O3)N=C(N)N(C)C2=O)cc1OC` [Compound 458], under setting [1], the IC50 lay in the range of 10000 to 50000 nM.
Regarding `CN1C(=O)C2(CC(c3ccccc3)Oc3ccc(-c4ccccc4)cc32)N=C1N` (stereo not shown) [Compound 27, 2′-amino-1′-methyl-2,6-diphenylspiro-[chroman-4,4′-imidazol]-5′(1′H)-one], the IC50 was 1000 to 5000 nM.
Still for that read-out and setting: next, `CN1C(=O)C2(CC(c3ccccc3)Oc3ccc(-c4ccncc4)cc32)N=C1N` (stereo not shown) [Compound 58, 2′-amino-1′-methyl-2-phenyl-6-(pyridin-4-yl)spiro[chroman-4,4′-imidazol]-5′(1′H)-one]: 10000 to 50000 nM.
In the case of `CN1OC2(C[C@H]([C@H]3CCOC(C)(C)C3)Oc3ccc(-c4ccc(F)c(F)c4)cc32)N=C1N` (stereo partly shown) [Compound 365], the IC50 under setting [1] lay in the range of 500 to 1000 nM.
Same read-out and setting: next, `CN1OC2(C[C@@]3(CCCC4CCCCC43)Oc3ccc(-c4cccc(C#N)c4)cc32)N=C1N` (stereo partly shown) [Compound 416]: 1000 to 5000 nM; `CN1C(=O)C2(CC3(CCCOC3)Oc3ccc(-c4ccsc4)cc32)N=C1N` (stereo not shown) [Compound 397]: 1000 to 5000 nM; `Cc1ccc(F)cc1-c1ccc2c(c1)[C@]1(C[C@@]3(CCCOC3)O2)N=C(N)N(C)C1=O` [Compound 385]: 1000 to 5000 nM.
Consider `Cc1cc(C)cc(-c2ccc3c(c2)[C@]2(C[C@@]4(CCCOC4)O3)N=C(N)N(C)C2=O)c1` [Compound 340], for which the IC50 under setting [1] was in the range of 100 to 500 nM.
In turn, `CN1C(=O)C2(CC(c3ccccc3)Oc3ccc(-c4cccc(CC#N)c4)cc32)N=C1N` (stereo not shown) [Compound 29, 2-(3-(2′-amino-1′-methyl-5′-oxo-2-phenyl-1′,5′-dihydrospiro[chroman-4,4′-imidazole]-6-yl)phenyl)acetonitrile] gave an IC50 of 1000 to 5000 nM.
In the case of `CN1C(=O)[C@@]2(C[C@]3(CCCOC3)Oc3ccc(-c4ccc5cn[nH]c5c4)cc32)N=C1N` [Compound 433], the half-inhibitory concentration (IC50) under setting [1] lay within 5000 to 10000 nM.
Take `CN1C(=O)[C@@]2(C[C@]3(CCCOC3)Oc3ccc(-c4cccc(Cl)n4)cc32)N=C1N` [Compound 426]: the IC50 under setting [1] is 1000 to 5000 nM.
On to `CN1OC2(CC(c3ccccc3)Oc3ccc(-c4ccc(F)c(C#N)c4)cc32)N=C1N` (stereo not shown) [Compound 103, 5-(3′-amino-2′-methyl-2-phenyl-2′H-spiro(chroman-4,5′-(1,2,4)oxadiazole)-6-yl)-2-fluorobenzonitrile], for which the IC50 under setting [1] is 5000 to 10000 nM.
For `COc1ccc(OC)c(-c2ccc3c(c2)[C@]2(C[C@]4(CCCOC4)O3)N=C(N)N(C)C2=O)c1` [Compound 307], the concentration for half-maximal inhibition (IC50) under setting [1] lay within 100 to 500 nM.
As for `CN1OC2(CC3(CCCCC3)Oc3ccc(-c4cccc(C#N)c4)cc32)NC1=N` (stereo not shown) [Compound 118, 3-(3″-Imino-2″-methylspiro[spiro(chroman-2,1″-cyclohexane)-4,5′-[1,2,4]oxadiazolidine]-6-yl)benzonitrile], the IC50 under setting [1] was 1000 to 5000 nM.
On to `CC(C)=CC(CCO)[C@H]1C[C@@]2(N=C(N)N(C)O2)c2cc(-c3cc(F)cc(F)c3)ccc2O1` (stereo partly shown) [Compound 421], for which the half-inhibitory concentration (IC50) under setting [1] fell in the range of 1000 to 5000 nM.
The same measure, in the same setting: next, `CCN1C(=O)C2(CC(c3ccccc3)Oc3ccc(Br)cc32)N=C1N` (stereo not shown) [Compound 69, 2′-amino-6-bromo-1′-ethyl-2-phenylspiro[chroman-4,4′-imidazol]-5′(1′H)-one]: 10000 to 50000 nM; `Cc1ccc(C#N)cc1-c1ccc2c(c1)C1(CC(C3CCOC(C)(C)C3)O2)N=C(N)N(C)O1` (stereo not shown) [Compound 292]: 100 to 500 nM.
Compound `CN(C)C(=O)c1ccc(-c2ccc3c(c2)C2(CC(c4ccccc4)O3)N=C(N)N(C)C2=O)cc1` (stereo not shown) [Compound 68, 4-(2′-amino-1′-methyl-5′-oxo-2-phenyl-1′,5′-dihydrospiro[chroman-4,4′-imidazole]-6-yl)-N,N-dimethylbenzamide] displayed an IC50 of 10000 to 50000 nM.
Take `CN1C(=O)C2(CC(c3ccccc3)Oc3ccc(-c4cccc(S(=O)(=O)N(C)C)c4)cc32)N=C1N` (stereo not shown) [Compound 45, 3-(2′-amino-1′-methyl-5′-oxo-2-phenyl-1′,5′-dihydrospiro[chroman-4,4′-imidazole]-6-yl)-N,N-dimethylbenzenesulfonamide]: the IC50 was 5000 to 10000 nM.
On to `N#Cc1cccc(-c2ccc3c(c2)C2(CC(c4ccccc4)O3)N=C(N)N(CCC3CC3)C2=O)c1` (stereo not shown) [Compound 10], for which, under setting [1], the IC50 fell in the range of 100 to 500 nM.

(Values after patent publication US8450308B2 (Vitae Pharmaceuticals, Inc., priority 2008, dated 2013).)
